Laboratory results taken from patent publication US11124516B2, “Pyrrolo[1,2-A]pyrimidinyl carboxamide compounds and their use in the treatment of medical disorders” (Bial—Biotech Investments, Inc., priority 2016, dated 2021).

Target: T1, glucocerebrosidase (Gcase) (Homo sapiens, UniProt P04062)
T1 sequence (P04062 40-536): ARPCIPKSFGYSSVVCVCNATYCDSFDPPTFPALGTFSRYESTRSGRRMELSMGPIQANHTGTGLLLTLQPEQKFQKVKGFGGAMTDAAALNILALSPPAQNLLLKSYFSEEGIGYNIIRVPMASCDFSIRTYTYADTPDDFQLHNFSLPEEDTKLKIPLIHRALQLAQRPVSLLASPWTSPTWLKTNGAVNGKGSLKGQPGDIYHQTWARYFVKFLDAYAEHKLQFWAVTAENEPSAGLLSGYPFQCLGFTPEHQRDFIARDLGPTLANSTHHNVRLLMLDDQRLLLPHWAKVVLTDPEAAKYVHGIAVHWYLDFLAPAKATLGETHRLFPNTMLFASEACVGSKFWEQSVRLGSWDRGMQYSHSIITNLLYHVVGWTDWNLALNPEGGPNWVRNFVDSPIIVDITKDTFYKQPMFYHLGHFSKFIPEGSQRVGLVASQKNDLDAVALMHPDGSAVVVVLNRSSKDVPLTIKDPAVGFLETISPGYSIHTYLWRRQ
Assay: Glucocerebrosidase (Gcase) activation assay, 4-methylumbelliferyl-beta-D-glucopyranoside substrate, fluorescence
Format: biochemical
Details: 10 nM GCase, 100 nM saposin C; for activation at 0.1 µM / activation at 1 µM: 0.25 h; for activation at 0.1 µM: pH 4.7, test compound at 0.1 μM, read-out: Percent Gcase Activation 0.1 μM Test Compound; for activation at 1 µM: pH 4.7, test compound at 1.0 μM, read-out: Percent Gcase Activation 1 μM Test Compound; for Percent Gcase Activation 0.1 μM Test Compound: test compound at 0.1 μM; for Percent Gcase Activation 0.1 μM Test Compound / Percent Gcase Activation 1 μM Test Compound: pH 4.7; for Percent Gcase Activation 1 μM Test Compound: test compound at 1.0 μM
Protocol: The ability of exemplary compounds to activate glucocerebrosidase (Gcase) was measured.
A 484 μL aliquot of a 1.0 mg/mL solution of phosphatidylserine (PS) (Sigma P7769) in chloroform was evaporated under a stream of nitrogen for 1 hour. The lipid film was dissolved over 4 minutes of vigorous vortexing in 40 mL of 176 mM K2HPO4/50 mM citric acid (pH 4.7) containing 7.5 μL of triton X-100, resulting in a mixed micellar preparation with a composition of 0.32 mM triton and 0.37 mol % PS. 4-Methylumbelliferyl-beta-D-glucopyranoside (ACROS-337025000) was dissolved in the micellar solution to a final concentration of 2 mM for use as the reaction substrate.
Test compounds were diluted to the desired concentrations with dimethylsulfoxide (DMSO) from 10 mM stocks, and 0.41 μL of the DMSO compound mixture was added to 100 μL of micellar solution containing 10 nM GCase and 100 nM saposin C (Enzo ALX-201-262-C050). Pre-incubation was allowed to occur for 30 minutes at room temperature, after which the reaction was initiated by combining 25 μL of substrate solution with 25 μL of compound/GCase/saposin mixture. The reaction proceeded for 15 minutes at room temperature and was stopped by adding 150 μL of 1M glycine, pH 12.5. The endpoint of the reaction was monitored by measuring fluorescence intensity (excitation: 365 nm; emission: 440 nm) on a SpectraMax i3 instrument (Molecular Devices). Test compounds were screened at 1.0 and 0.1 μM final concentration, and subsequent 8-point dose response curves were obtained using 3-fold dilutions from a maximum final concentration of 5 μM.
For experiments in which the test compound was used at a concentration of 1.0 μM, the symbol “+” indicates less than 30% Gcase activation; the symbol “++” indicates Gcase activation in the range of 30% up to 60%; and the symbol “+++” indicates Gcase activation greater than 60%. For experiments in which the test compound was used at a concentration of 0.1 μM, the symbol “*” indicates less than 10% Gcase activation; the symbol “**” indicates Gcase activation in the range of 10% up to 20%; and the symbol “***” indicates greater than 20% Gcase activation.

| activation at 0.1 µM [%] | activation at 1 µM [%] | Percent Gcase Activation 0.1 μM Test Compound | Percent Gcase Activation 1 μM Test Compound | Compound |
| --- | --- | --- | --- | --- |
| > 20 | > 60 | – | – | CCC(NC(=O)c1ccn2c(C)cc(C)nc12)C12CC3CC(C1)C(C3)C2 (stereo not shown) [IV-72] |
| > 20 | > 60 | – | – | CCC(NC(=O)c1ccn2c(C)cc(C)nc12)c1ccc(OC)cc1 (stereo not shown) [IV-83] |
| > 20 | > 60 | – | – | Cc1cc(C)n2ccc(C(=O)NC(C)C34CC5CC(C3)C(C5)C4)c2n1 (stereo not shown) [IV-89] |
| < 10 | 30 to 60 | – | – | Cc1cc(C)n2ccc(C(=O)NC(CO)C34CC5CC(CC(C5)C3)C4)c2n1 (stereo not shown) [IV-34] |
| > 20 | > 60 | – | – | COc1ccccc1C(C)NC(=O)c1ccn2c(C)cc(C)nc12 (stereo not shown) [IV-60] |
| > 20 | > 60 | – | – | Cc1cc(C)n2ccc(C(=O)NC(C)(C)c3ccc(F)cc3)c2n1 [IV-103] |
| < 10 | 30 to 60 | – | – | CCCCO[C@H]1CC[C@H](NC(=O)c2ccn3c(C)cc(C4CCOCC4)nc23)CC1 [III-32] |
| 10 to 20 | > 60 | – | – | Cc1cc(C)n2ccc(C(=O)NC(C)c3nc(C4CCCCC4)no3)c2n1 (stereo not shown) [IV-69] |
| > 20 | > 60 | – | – | Cc1cc(C)n2ccc(C(=O)NC(C)c3ccccc3C)c2n1 (stereo not shown) [IV-63] |
| < 10 | < 30 | – | – | CCC(NC(=O)c1ccn2c(C)cc(C)nc12)c1ncccc1C (stereo not shown) [IV-57] |
| < 10 | < 30 | – | – | Cc1cc(C)n2ccc(C(=O)NC(CO)c3ccc(C(C)C)cc3)c2n1 (stereo not shown) [IV-93] |
| < 10 | < 30 | – | – | COCC(NC(=O)c1ccn2c(C)cc(C)nc12)C1CC1 (stereo not shown) [III-66] |
| 10 to 20 | > 60 | – | – | Cc1cc(C)n2ccc(C(=O)NC(C)c3ccc(-n4cccn4)cc3)c2n1 (stereo not shown) [IV-68] |
| < 10 | > 60 | – | – | Cc1cc(C)n2ccc(C(=O)NC(C)c3cccc(N4CCCC4)c3)c2n1 (stereo not shown) [IV-102] |
| 10 to 20 | > 60 | – | – | Cc1cc(C)n2ccc(C(=O)NC(C)c3ccc(F)c(C)c3)c2n1 (stereo not shown) [IV-107] |
| < 10 | < 30 | – | – | Cc1cc(C)n2ccc(C(=O)NC(C)c3nnn(C4CC4)n3)c2n1 (stereo not shown) [IV-76] |
| < 10 | < 30 | – | – | CCn1c(C(C)NC(=O)c2ccn3c(C)cc(C)nc23)nc2c1CCCC2 (stereo not shown) [IV-106] |
| < 10 | < 30 | – | – | Cc1ccc(C(CO)NC(=O)c2ccn3c(C)cc(C)nc23)c(C)c1 (stereo not shown) [IV-91] |
| > 20 | > 60 | – | – | Cc1cc(C)n2ccc(C(=O)NC(C)c3ccc(C)c(F)c3)c2n1 (stereo not shown) [IV-104] |
| > 20 | > 60 | – | – | Cc1cc(C)n2ccc(C(=O)N[C@@H](C)c3cccc4c3CCCC4)c2n1 [IV-99] |
| < 10 | 30 to 60 | – | – | CCC(CO)(NC(=O)c1ccn2c(C)cc(C)nc12)c1ccccc1 (stereo not shown) [IV-101] |
| 10 to 20 | > 60 | – | – | Cc1cc(C)n2ccc(C(=O)NC(C)C3Oc4ccccc4C3C)c2n1 (stereo not shown) [IV-87] |
| 10 to 20 | > 60 | – | – | Cc1cc(-c2ncccn2)nc2c(C(=O)NC(C)(C)C3CC3)ccn12 [III-43] |
| > 20 | > 60 | – | – | CCC(NC(=O)c1ccn2c(C)cc(C)nc12)c1cccc(Cl)c1 (stereo not shown) [IV-105] |
| < 10 | 30 to 60 | – | – | Cc1cc(C)n2ccc(C(=O)NC(CO)c3cccc4ccccc34)c2n1 (stereo not shown) [IV-94] |
| 10 to 20 | > 60 | – | – | Cc1cc(C)n2ccc(C(=O)N[C@H](C)c3cccc4c3CCCC4)c2n1 [IV-95] |
| < 10 | 30 to 60 | – | – | Cc1cc(C)n2ccc(C(=O)NC(C)c3ccc(-c4cccnc4)cc3)c2n1 (stereo not shown) [IV-43] |

| activation at 0.1 µM [%] | activation at 1 µM [%] | Percent Gcase Activation 0.1 μM Test Compound | Percent Gcase Activation 1 μM Test Compound | Compound |
| --- | --- | --- | --- | --- |
| > 20 | > 60 | – | – | COc1ccc(F)cc1C(C)NC(=O)c1ccn2c(C)cc(C)nc12 (stereo not shown) [IV-74] |
| > 20 | > 60 | – | – | Cc1cc(C)n2ccc(C(=O)NC(C)c3ccc(-c4ccccc4)cc3)c2n1 (stereo not shown) [IV-77] |
| 10 to 20 | > 60 | – | – | Cc1cc(C)n2ccc(C(=O)NC(C)C3CCCC3)c2n1 (stereo not shown) [III-69] |
| < 10 | > 60 | – | – | Cc1cc(C)n2ccc(C(=O)NC(C)c3ccccc3-c3ccccc3)c2n1 (stereo not shown) [IV-70] |
| < 10 | < 30 | – | – | Cc1cc(C)n2ccc(C(=O)NC(C)c3nc4ccccc4n3C)c2n1 (stereo not shown) [IV-85] |
| > 20 | > 60 | – | – | CCOc1ccc(C(C)NC(=O)c2ccn3c(C)cc(C)nc23)cc1 (stereo not shown) [IV-88] |
| < 10 | 30 to 60 | – | – | Cc1cc(C)n2ccc(C(=O)NC(C)c3ccccc3-n3cccn3)c2n1 (stereo not shown) [IV-67] |
| 10 to 20 | > 60 | – | – | CCc1ccc([C@@H](C)NC(=O)c2ccn3c(C)cc(C)nc23)cc1 [IV-100] |
| 10 to 20 | > 60 | – | – | Cc1cc(C)n2ccc(C(=O)NC(C)c3ncc(-c4ccccc4)o3)c2n1 (stereo not shown) [IV-65] |
| < 10 | < 30 | – | – | Cc1cc(C)n2ccc(C(=O)N[C@@H](C)c3nc4ccccc4n3C)c2n1 [IV-37] |
| < 10 | < 30 | – | – | Cc1cc(C)n2ccc(C(=O)NC(C)c3nnn(-c4ccccc4)n3)c2n1 (stereo not shown) [IV-80] |
| – | – | *** (greater than 20% Gcase activation) | +++ (Gcase activation greater than 60%) | Cc1cc(C)n2ccc(C(=O)NC(C)C3CCCCC3)c2n1 (stereo not shown) [III-67] |
| < 10 | – | – | +++ (Gcase activation greater than 60%) | Cc1cc(C)n2ccc(C(=O)NC(C)C3COc4ccccc4O3)c2n1 (stereo not shown) [IV-82] |
| < 10 | < 30 | – | – | COCc1cc(C(F)F)n2ccc(C(=O)NC3(c4cc(F)cc(F)c4)CC3)c2n1 [III-9] |
| 10 to 20 | > 60 | – | – | Cc1cc(C)n2ccc(C(=O)N[C@H](C)c3ccc(F)cc3)c2n1 [IV-97] |
| 10 to 20 | > 60 | – | – | Cc1cc(C)n2ccc(C(=O)NC(C)c3ccccc3F)c2n1 (stereo not shown) [IV-108] |
| < 10 | < 30 | – | – | CCC(NC(=O)c1ccn2c(C)cc(C)nc12)c1nc2ccccc2[nH]1 (stereo not shown) [IV-86] |
| < 10 | > 60 | – | – | Cc1cn2ccc(C(=O)NC(C)(C)C3CC3)c2nc1-c1ccc(F)cc1 [III-50] |
| 10 to 20 | > 60 | – | – | Cc1cc(C)n2ccc(C(=O)N[C@H](C)c3ccc4c(c3)OCO4)c2n1 [IV-84] |
| – | – | * (less than 10% Gcase activation) | + (less than 30% Gcase activation) | Cc1cc(C)n2ccc(C(=O)NC(C)C3COc4ccccc4O3)c2n1 (stereo not shown) [IV-36] |
| < 10 | < 30 | – | – | Cc1cc(C)n2ccc(C(=O)NC(CO)c3cccc(C)c3C)c2n1 (stereo not shown) [IV-92] |
| > 20 | > 60 | – | – | CCC(=O)Nc1ccc(C(C)NC(=O)c2ccn3c(C)cc(C)nc23)cc1 (stereo not shown) [IV-98] |
| < 10 | < 30 | – | – | Cc1cc(C)n2ccc(C(=O)NC(CO)c3ccc4ccccc4c3)c2n1 (stereo not shown) [IV-90] |
| < 10 | > 60 | – | – | COCC(C)(NC(=O)c1ccn2c(C)cc(C)nc12)c1ccccc1 (stereo not shown) [III-68] |
| 10 to 20 | > 60 | – | – | Cc1cc(C)n2ccc(C(=O)NC(C)c3cccc(-n4cccn4)c3)c2n1 (stereo not shown) [IV-75] |
| > 20 | > 60 | – | – | Cc1cc(C)n2ccc(C(=O)NC(C)(C)c3cccc(Cl)c3)c2n1 [IV-96] |
